# Data: patent US20230150970A1, “AMINOPYRIMIDINE DERIVATIVES AND THEIR USE AS ARYL HYDROCARBON RECEPTOR MODULATORS” (DONG-A ST CO., LTD., priority 2020, published 2023)
# Target: T1, AhR (Homo sapiens, UniProt P35869)
# T1 sequence (P35869 11-848): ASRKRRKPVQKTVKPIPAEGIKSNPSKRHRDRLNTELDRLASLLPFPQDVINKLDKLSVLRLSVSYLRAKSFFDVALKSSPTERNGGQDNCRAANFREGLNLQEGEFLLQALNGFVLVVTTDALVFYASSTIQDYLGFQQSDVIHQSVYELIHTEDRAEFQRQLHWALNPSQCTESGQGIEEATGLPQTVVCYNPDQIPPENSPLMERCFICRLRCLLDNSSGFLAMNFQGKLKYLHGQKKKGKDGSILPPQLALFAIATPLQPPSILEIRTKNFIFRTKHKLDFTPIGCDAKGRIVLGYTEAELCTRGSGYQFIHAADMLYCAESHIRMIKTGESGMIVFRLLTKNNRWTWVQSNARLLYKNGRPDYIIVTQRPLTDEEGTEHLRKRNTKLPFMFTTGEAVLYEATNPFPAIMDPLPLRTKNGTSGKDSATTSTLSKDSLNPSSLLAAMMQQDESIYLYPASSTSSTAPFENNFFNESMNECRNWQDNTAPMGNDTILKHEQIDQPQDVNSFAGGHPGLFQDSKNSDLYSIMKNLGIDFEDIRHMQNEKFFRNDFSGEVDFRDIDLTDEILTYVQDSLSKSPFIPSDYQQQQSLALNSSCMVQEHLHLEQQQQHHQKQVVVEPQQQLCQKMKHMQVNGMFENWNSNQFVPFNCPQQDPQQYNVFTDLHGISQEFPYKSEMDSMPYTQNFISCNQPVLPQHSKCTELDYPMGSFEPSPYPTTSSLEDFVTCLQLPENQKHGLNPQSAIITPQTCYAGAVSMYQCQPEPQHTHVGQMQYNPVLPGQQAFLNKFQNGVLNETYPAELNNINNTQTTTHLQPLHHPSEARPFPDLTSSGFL
# Assay: In Vitro Assay 1: XRE-luciferase reporter assay, antagonism in human cell line (HepG2)
# Conditions: Assay 1: AhR-Luc Human Antagonism (IC50, nM), unmarked values: kynurenine 200 μM, 6 hours
row,Structure (SMILES),IC50 [nM]
1,"OCC1CCN(c2cc(-c3ccc(OC(F)(F)F)cc3)nc(-c3cccnc3)n2)CC1 [Example 227, (1-(2-(pyridin-3-yl)-6-(4-(trifluoromethoxy)phenyl)pyrimidin-4-yl)piperidin-4-yl)methanol]",10 to 100
2,"CC(O)C(=O)NC1CCN(c2cc(-c3ccc(Cl)cc3)nc(-c3cccnc3)n2)CC1 (stereo not shown) [Example 237, N-(1-(6-(4-chlorophenyl)-2-(pyridin-3-yl)pyrimidin-4-yl)piperidin-4-yl)-2-hydroxypropanamide]",10 to 100
3,"O=C(CO)NC1CCN(c2cc(-c3ccc(Cl)cc3)nc(-c3cccnc3)n2)CC1 [Example 238, N-(1-(6-(4-chlorophenyl)-2-(pyridin-3-yl)pyrimidin-4-yl)piperidin-4-yl)-2-hydroxyacetamide]",10 to 100
4,"OC[C@H]1CCN(c2cc(-c3ccc(Cl)cc3)nc(-c3cccnc3)n2)C1 [Example 240, (S)-(1-(6-(4-chlorophenyl)-2-(pyridin-3-yl)pyrimidin-4-yl)pyrrolidin-3-yl)methanol]",< 10
5,"CC(=O)N[C@@H]1CN(c2cc(-c3ccc(Cl)cc3)nc(-c3cccnc3)n2)C[C@H]1O [Example 241, N-((3R,4R)-1-(6-(4-chlorophenyl)-2-(pyridin-3-yl)pyrimidin-4-yl)-4-hydroxypyrrolidin-3-yl)acetamide]",10 to 100
6,"CC(=O)N[C@@H]1CN(c2cc(-c3ccc(Cl)cc3)nc(-c3cccnc3)n2)C[C@H]1OC(C)=O [Example 242, (3R,4R)-4-acetamido-1-(6-(4-chlorophenyl)-2-(pyridin-3-yl)pyrimidin-4-yl)pyrrolidin-3-yl acetate]",10 to 100
7,"CC(=O)N[C@H]1CN(c2cc(-c3ccc(Cl)cc3)nc(-c3cccnc3)n2)C[C@H]1O [Example 244, N-((3S,4R)-1-(6-(4-chlorophenyl)-2-(pyridin-3-yl)pyrimidin-4-yl)-4-hydroxypyrrolidin-3-yl)acetamide]",> 1000
8,"CC(=O)N[C@H]1CN(c2cc(-c3ccc(Cl)cc3)nc(-c3cccnc3)n2)C[C@@H]1O [Example 245, N-((3S,4S)-1-(6-(4-chlorophenyl)-2-(pyridin-3-yl)pyrimidin-4-yl)-4-hydroxypyrrolidin-3-yl)acetamide]",10 to 100
9,"OC[C@H]1CCN(c2cc(-c3ccc(Cl)cc3)nc(-c3cccnc3)n2)C[C@H]1O [Example 247, (3S,4R)-1-(6-(4-chlorophenyl)-2-(pyridin-3-yl)pyrimidin-4-yl)-4-(hydroxymethyl)piperidin-3-ol]",10 to 100
10,"OC[C@H]1CCN(c2cc(-c3ccc(C(F)(F)F)cc3)nc(-c3cccnc3)n2)C[C@H]1O [Example 248, (3S,4R)-4-(hydroxymethyl)-1-(2-(pyridin-3-yl)-6-(4-(trifluoromethyl)phenyl)pyrimidin-4-yl)piperidin-3-ol]",10 to 100
11,"OC[C@H]1CCN(c2cc(-c3ccc(Cl)cc3)nc(-c3cccnc3)n2)C[C@H]1F [Example 249, ((3S,4R)-1-(6-(4-chlorophenyl)-2-(pyridin-3-yl)pyrimidin-4-yl)-3-fluoropiperidin-4-yl)methanol]",10 to 100

# Same assay, conditions: Assay 1: AhR-Luc Human Antagonism (IC50, nM), values marked *: kynurenine 50 μM, 6 hours
row,Structure (SMILES),IC50 [nM]
1,"FC1(F)CCN(c2cc(-c3ccc(Cl)cc3)nc(-c3cccnc3)n2)C1 [Example 198, 4-(4-chlorophenyl)-6-(3,3-difluoropyrrolidin-1-yl)-2-(pyridin-3-yl)pyrimidine]",10 to 100
2,"Clc1ccc(-c2cc(N3CCC(N4CCOCC4)C3)nc(-c3cccnc3)n2)cc1 (stereo not shown) [Example 199, 4-(1-(6-(4-chlorophenyl)-2-(pyridin-3-yl)pyrimidin-4-yl)pyrrolidin-3-yl)morpholine]",100 to 1000
3,"O=C1CCC(CNc2cc(-c3ccc(Cl)cc3)nc(-c3cccnc3)n2)N1 (stereo not shown) [Example 200, 5-(((6-(4-chlorophenyl)-2-(pyridin-3-yl)pyrimidin-4-yl)amino)methyl)pyrrolidin-2-one]",> 1000
4,"CO[C@H]1CN(C)C[C@@H]1Nc1cc(-c2ccc(Cl)cc2)nc(-c2cccnc2)n1 [Example 202, 6-(4-chlorophenyl)-N-((3S,4S)-4-methoxy-1-methylpyrrolidin-3-yl)-2-(pyridin-3-yl)pyrimidin-4-amine]",> 1000
5,"Clc1ccc(-c2cc(N[C@@H]3CCCNC3)nc(-c3cccnc3)n2)cc1 [Example 203, (R)-6-(4-chlorophenyl)-N-(piperidin-3-yl)-2-(pyridin-3-yl)pyrimidin-4-amine]",100 to 1000
6,"Clc1ccc(-c2cc(NC3CCCNC3)nc(-c3cccnc3)n2)cc1 (stereo not shown) [Example 204, 6-(4-chlorophenyl)-N-(piperidin-3-yl)-2-(pyridin-3-yl)pyrimidin-4-amine]",> 1000
7,"F[C@@H]1CNCC[C@H]1Nc1cc(-c2ccc(Cl)cc2)nc(-c2cccnc2)n1 [Example 205, 6-(4-chlorophenyl)-N-((3R,4R)-3-fluoropiperidin-4-yl)-2-(pyridin-3-yl)pyrimidin-4-amine]",> 1000
8,"Clc1ccc(-c2cc(NC[C@H]3CCNC3)nc(-c3cccnc3)n2)cc1 [Example 206, (S)-6-(4-chlorophenyl)-2-(pyridin-3-yl)-N-(pyrrolidin-3-ylmethyl)pyrimidin-4-amine]",> 1000
9,"COC(=O)[C@H]1C[C@@H](Nc2cc(-c3ccc(Cl)cc3)nc(-c3cccnc3)n2)CN1 [Example 207, methyl (2R,4R)-4-((6-(4-chlorophenyl)-2-(pyridin-3-yl)pyrimidin-4-yl)amino)pyrrolidine-2-carboxylate]",> 1000
10,"O=C(O)[C@H]1C[C@H](Nc2cc(-c3ccc(Cl)cc3)nc(-c3cccnc3)n2)CN1 [Example 208, (2R,4S)-4-((6-(4-chlorophenyl)-2-(pyridin-3-yl)pyrimidin-4-yl)amino)pyrrolidine-2-carboxylic acid]",> 1000
11,"ClC[C@@H]1CCN(c2cc(-c3ccc(Cl)cc3)nc(-c3cccnc3)n2)C1 [Example 210, (R)-4-(3-(chloromethyl)pyrrolidin-1-yl)-6-(4-chlorophenyl)-2-(pyridin-3-yl)pyrimidine]",10 to 100
12,"ClC[C@H]1CCN(c2cc(-c3ccc(Cl)cc3)nc(-c3cccnc3)n2)C1 [Example 211, (S)-4-(3-(chloromethyl)pyrrolidin-1-yl)-6-(4-chlorophenyl)-2-(pyridin-3-yl)pyrimidine]",10 to 100
13,"N#CC1CCN(c2cc(-c3ccc(Cl)cc3)nc(-c3cccnc3)n2)C1 (stereo not shown) [Example 212, 1-(6-(4-chlorophenyl)-2-(pyridin-3-yl)pyrimidin-4-yl)pyrrolidine-3-carbonitrile]",10 to 100
14,"CC[C@@H](O)CNc1cc(-c2ccc(Cl)cc2)nc(-c2cccnc2)n1 [Example 213, (R)-1-((6-(4-chlorophenyl)-2-(pyridin-3-yl)pyrimidin-4-yl)amino)butan-2-ol]",10 to 100
15,"O[C@@H]1CC[C@H](Nc2cc(-c3ccc(Cl)cc3)nc(-c3cccnc3)n2)C1 [Example 214, (1R,3S)-3-((6-(4-chlorophenyl)-2-(pyridin-3-yl)pyrimidin-4-yl)amino)cyclopentan-1-ol]",10 to 100
16,"COCCN1CCN(c2cc(-c3ccc(Cl)cc3)nc(-c3cccnc3)n2)CC1 [Example 218, 4-(4-chlorophenyl)-6-(4-(2-methoxyethyl)piperazin-1-yl)-2-(pyridin-3-yl)pyrimidine]",< 10
17,"O[C@@H]1CCN(c2cc(-c3ccc(Cl)cc3)nc(-c3cccnc3)n2)C[C@@H]1F [Example 219, (3S,4R)-1-(6-(4-chlorophenyl)-2-(pyridin-3-yl)pyrimidin-4-yl)-3-fluoropiperidin-4-ol]",< 10
18,"O[C@H]1CCN(c2cc(-c3ccc(Cl)cc3)nc(-c3cccnc3)n2)C[C@H]1F [Example 220, (3R,4S)-1-(6-(4-chlorophenyl)-2-(pyridin-3-yl)pyrimidin-4-yl)-3-fluoropiperidin-4-ol]",10 to 100
19,"O[C@@H]1CCN(c2cc(-c3ccc(Cl)cc3)nc(-c3cccnc3)n2)C[C@H]1F [Example 221, (3R,4R)-1-(6-(4-chlorophenyl)-2-(pyridin-3-yl)pyrimidin-4-yl)-3-fluoropiperidin-4-ol]",10 to 100
20,"O[C@H]1CCN(c2cc(-c3ccc(Cl)cc3)nc(-c3cccnc3)n2)C[C@@H]1F [Example 222, (3S,4S)-1-(6-(4-chlorophenyl)-2-(pyridin-3-yl)pyrimidin-4-yl)-3-fluoropiperidin-4-ol]",< 10
21,"O=C(CO)N1CCN(c2cc(-c3ccc(Cl)cc3)nc(-c3cccnc3)n2)CC1 [Example 223, 1-(4-(6-(4-chlorophenyl)-2-(pyridin-3-yl)pyrimidin-4-yl)piperazin-1-yl)-2-hydroxyethan-1-one]",< 10
22,"OCC1CCN(c2cc(-c3ccc(Cl)cc3)nc(-c3cccnc3)n2)CC1O (stereo not shown) [Example 233, 1-(6-(4-chlorophenyl)-2-(pyridin-3-yl)pyrimidin-4-yl)-4-(hydroxymethyl)piperidin-3-ol]",< 10
23,"O[C@@H]1CN(c2cc(-c3ccc(Cl)cc3)nc(-c3cccnc3)n2)C[C@H]1F [Example 234, (3R,4R)-1-(6-(4-chlorophenyl)-2-(pyridin-3-yl)pyrimidin-4-yl)-4-fluoropyrrolidin-3-ol]",< 10
